Source: patent EP4818172A1, “ASCORBIC ACID DERIVATIVES AND COSMETIC CONTAINING SAME” (Seiwa Kasei Co., Ltd., priority 2023, dated 2025)

Tests used:
[1] = Stability test -1: residual rate of 1% aqueous solutions at pH 3 to 9 on storage; type: physicochemical; conditions: for Residual Rate After 2 weeks / Residual Rate After 4 weeks: 1% aqueous solution
[2] = test system: Normal human dermal fibroblasts (NHDF); assay: Hyaluronic acid production promoting effect (ELISA of supernatant); type: cell-based; conditions: sample at 10 mM or less in serum-free D-MEM, cultured 48 hours, % of control group (100%), N=3
Protocol: Normal human dermal fibroblasts (NHDF) were prepared in D-MEM containing 5% (v/v) fetal bovine serum to a cell density of 2.5 × 10^4 cells/well, and then pre-incubated on a 96-well plate for 24 hours. After removing the medium, samples prepared in serum-free D-MEM were added to each well and cultured for 48 hours. After the culture was completed, the amount of hyaluronic acid in the supernatant was quantified by ELISA. Measurements were performed in triplicate (N=3).
(§1) The amount of hyaluronic acid produced when the sample was measured at a concentration of 10 mM or less was compared with that of the control group, and the results (% values when the control group is set to 100%) are shown in Tables 18 to 20 based on the following criteria. • <100%: ± • 100-120%: + • 120%<: ++ [Table 18]

[3] = Stability test -1: odor and coloration scored by 10 panelists; type: physicochemical; conditions: Test Example 1, aqueous solution, total score of 10 panelists
Protocol: (§2) For each of the samples of Synthesis Examples 1 to 6, 1% aqueous solutions were adjusted to pH 3, 5, 7, 8, and 9 with a dilute potassium hydroxide aqueous solution, and then placed in 50 mL screw tubes and • 2: Color changes compared to immediately after preparation. • 1: Strongly colored compared to immediately after preparation. Based on the results of the above evaluation, the following classification was made: • ○: Total score of 10 panelists is 25 or more • △: Total score of 10 panelists is 16-24 • ×: The total score of 10 panelists is 15 or less [Table 10]

[4] = Stability test -2: odor and coloration of cream stored at 50°C; type: physicochemical; conditions: Test Example 2, cream stored at 50°C, total score of 10 panelists
Protocol: as §2
(§3) For each of the samples of Synthesis Examples 9 to 32, (a) and (b) shown in Table 12 were each heated and mixed. After cooling, (c) shown in Table 12 was added to prepare a cream with a pH of 7 or 9. The sample was stored at 50°C for 4 weeks, and the residual rate was determined in the same manner as in Test Example 1 and evaluated according to the criteria described below. The odor and coloration were also evaluated according to the same method and criteria as in Test Example 1. The results regarding the residual rate are shown in Tables 13 and 14, and the results regarding the odor and coloration are shown in Tables 15 and 16.

[5] = Stability test -2: residual rate in cream of pH 7 or 9 stored at 50°C; type: physicochemical; conditions: cream with 4.0 W/W% derivative
Protocol: as §3
• ⊚: 95% or more • ○: 85% or more, less than 95% • ×: Less than 85% [Table 12]

[6] = test system: Normal human dermal fibroblasts; assay: Collagen production promoting effect (ELISA of free collagen in supernatant); type: cell-based; conditions: sample at 10 mM or less, cultured 48 hours, % of control group (100%), N=3
Protocol: Normal human dermal fibroblasts were prepared in D-MEM containing 5% (v/v) fetal bovine serum to a cell density of 2.5 × 10^4 cell s /well, and then pre-incubated for 24 hours on a 96-well plate. After removing the medium, samples prepared to a predetermined concentration in D-MEM containing 5% (v/v) fetal bovine serum were added to each well and cultured for 48 hours. After the culture was completed, the amount of free collagen in the supernatant was quantified by ELISA. Measurements were performed in triplicate (N=3).
as §1, with “collagen” for “hyaluronic acid”, “was” for “is”, “Table 17” for “Tables 18 to 20”, “100-140%:” for “100-120%:”, “140%<:” for “120%<:”, “17]” for “18]”

Compound: O=C1O[C@H]([C@@H](O)CO)C(O)=C1O [Ascorbic acid]
- Residual Rate After 2 weeks ([1]; pH3, stored at 50°C): ○
- Residual Rate After 4 weeks ([1]; pH3, stored at 50°C): Δ
- Residual Rate After 2 weeks ([1]; pH5, stored at 50°C): ○
- Residual Rate After 4 weeks ([1]; pH5, stored at 50°C): ×
- Residual Rate After 2 weeks ([1]; pH7, stored at 50°C): ×
- Residual Rate After 4 weeks ([1]; pH7, stored at 50°C): ×
- Residual Rate After 2 weeks ([1]; pH8, stored at 50°C): ×
- Residual Rate After 4 weeks ([1]; pH8, stored at 50°C): ×
- Residual Rate After 2 weeks ([1]; pH9, stored at 50°C): ×
- Residual Rate After 4 weeks ([1]; pH9, stored at 50°C): ×
- residual rate ([1]; Test Example 1, pH 7 to 9, stored at 50°C, after two weeks): less than 30%
- Hyaluronic acid production-promoting effect [2]: ± (<100%)
- Coloration After 2 weeks [3]: Δ
- Odor After 2 weeks [3]: Δ
- Coloration After 4 weeks [3]: × (The total score of 10 panelists is 15 or less)
- Odor After 4 weeks [3]: × (The total score of 10 panelists is 15 or less)

Compound: CCCCCCCCCCCCCCCC(=O)OCC(OC(=O)CCCCCCCCCCCCCCC)C1OC(=O)C2=C1OCCCO2 (stereo not shown) [Synthesis Example 27, 5,6-O-dipalmitoyl-2,3-O-(1,3-propanediyl) ascorbic acid]
- Coloration After 2 weeks [4]: ○ (Total score of 10 panelists is 25 or more)
- Odor After 2 weeks [4]: ○ (Total score of 10 panelists is 25 or more)
- Coloration After 4 weeks [4]: Δ
- Odor After 4 weeks [4]: Δ
- Residual Rate After 2 weeks ([5]; pH7, stored at 50°C): ⊚ (95% or more)
- Residual Rate After 4 weeks ([5]; pH7, stored at 50°C): ⊚ (95% or more)
- Residual Rate After 2 weeks ([5]; pH9, stored at 50°C): ⊚ (95% or more)
- Residual Rate After 4 weeks ([5]; pH9, stored at 50°C): ⊚ (95% or more)
- Hyaluronic acid production-promoting effect [2]: ++ (120%<)
- Collagen production-promoting effect [6]: ++ (140%<)

Compound: CCCC(=O)OCC(OC(=O)CCC)C1OC(=O)C2=C1OCCCO2 (stereo not shown) [synthesis example 21, 5,6-O-dibutanoyl-2,3-O-(1,3-propanediyl) ascorbic acid]
- Coloration After 2 weeks [4]: ○ (Total score of 10 panelists is 25 or more)
- Odor After 2 weeks [4]: ○ (Total score of 10 panelists is 25 or more)
- Coloration After 4 weeks [4]: ○ (Total score of 10 panelists is 25 or more)
- Odor After 4 weeks [4]: Δ
- Residual Rate After 2 weeks ([5]; pH7, stored at 50°C): ⊚ (95% or more)
- Residual Rate After 4 weeks ([5]; pH7, stored at 50°C): ⊚ (95% or more)
- Residual Rate After 2 weeks ([5]; pH9, stored at 50°C): ⊚ (95% or more)
- Residual Rate After 4 weeks ([5]; pH9, stored at 50°C): ⊚ (95% or more)
- Hyaluronic acid production-promoting effect [2]: ++ (120%<)
- Collagen production-promoting effect [6]: ++ (140%<)

Compound: CCCCCCCCCCCCCCCC(=O)OCC(O)C1OC(=O)C2=C1OCCCO2 (stereo not shown) [synthesis example 26, 6-O-palmitoyl-2,3-O-(1,3-propanediyl) ascorbic acid]
- Coloration After 2 weeks [4]: ○ (Total score of 10 panelists is 25 or more)
- Odor After 2 weeks [4]: ○ (Total score of 10 panelists is 25 or more)
- Coloration After 4 weeks [4]: Δ
- Odor After 4 weeks [4]: Δ
- Residual Rate After 2 weeks ([5]; pH7, stored at 50°C): ⊚ (95% or more)
- Residual Rate After 4 weeks ([5]; pH7, stored at 50°C): ⊚ (95% or more)
- Residual Rate After 2 weeks ([5]; pH9, stored at 50°C): ⊚ (95% or more)
- Residual Rate After 4 weeks ([5]; pH9, stored at 50°C): ○ (85% or more, less than 95%)
- Hyaluronic acid production-promoting effect [2]: ++ (120%<)

Compound: CC(C)CCCCCCCCCCCCCCC(=O)OCC(OC(=O)CCCCCCCCCCCCCCC(C)C)C1OC(=O)C2=C1OCCCO2 (stereo not shown) [synthesis example 29, 5,6-O-diisostearoyl-2,3-O-(1,3-propanediyl) ascorbic acid]
- Coloration After 2 weeks [4]: ○ (Total score of 10 panelists is 25 or more)
- Odor After 2 weeks [4]: ○ (Total score of 10 panelists is 25 or more)
- Coloration After 4 weeks [4]: ○ (Total score of 10 panelists is 25 or more)
- Odor After 4 weeks [4]: Δ
- Residual Rate After 2 weeks ([5]; pH7, stored at 50°C): ⊚ (95% or more)
- Residual Rate After 4 weeks ([5]; pH7, stored at 50°C): ⊚ (95% or more)
- Residual Rate After 2 weeks ([5]; pH9, stored at 50°C): ⊚ (95% or more)
- Residual Rate After 4 weeks ([5]; pH9, stored at 50°C): ⊚ (95% or more)
- Hyaluronic acid production-promoting effect [2]: + (100-120%)
- Collagen production-promoting effect [6]: ++ (140%<)

Compound: CC(C)CCCCCCCCCCCCCCC(=O)OCC(O)C1OC(=O)C2=C1OCCO2 (stereo not shown) [synthesis example 31, 6-O-isostearoyl-2,3-O-(1,2-ethanediyl) ascorbic acid]
- Coloration After 2 weeks [4]: ○ (Total score of 10 panelists is 25 or more)
- Odor After 2 weeks [4]: ○ (Total score of 10 panelists is 25 or more)
- Coloration After 4 weeks [4]: ○ (Total score of 10 panelists is 25 or more)
- Odor After 4 weeks [4]: Δ
- Residual Rate After 2 weeks ([5]; pH7, stored at 50°C): ⊚ (95% or more)
- Residual Rate After 4 weeks ([5]; pH7, stored at 50°C): ⊚ (95% or more)
- Residual Rate After 2 weeks ([5]; pH9, stored at 50°C): ⊚ (95% or more)
- Residual Rate After 4 weeks ([5]; pH9, stored at 50°C): ⊚ (95% or more)
- Hyaluronic acid production-promoting effect [2]: ++ (120%<)

Compound: CCCCCCCC(=O)OCC(OC(=O)CCCCCCC)C1OC(=O)C2=C1OCCCCO2 (stereo not shown) [synthetic example 12, 5,6-O-dioctanoyl-2,3-O-(1,4-butanediyl) ascorbic acid]
- Coloration After 2 weeks [4]: ○ (Total score of 10 panelists is 25 or more)
- Odor After 2 weeks [4]: ○ (Total score of 10 panelists is 25 or more)
- Coloration After 4 weeks [4]: ○ (Total score of 10 panelists is 25 or more)
- Odor After 4 weeks [4]: Δ
- Residual Rate After 2 weeks ([5]; pH7, stored at 50°C): ⊚ (95% or more)
- Residual Rate After 4 weeks ([5]; pH7, stored at 50°C): ⊚ (95% or more)
- Residual Rate After 2 weeks ([5]; pH9, stored at 50°C): ⊚ (95% or more)
- Residual Rate After 4 weeks ([5]; pH9, stored at 50°C): ⊚ (95% or more)
- Hyaluronic acid production-promoting effect [2]: ++ (120%<)
- Collagen production-promoting effect [6]: ++ (140%<)

Compound: CCCCCCCCCCCCCCCC(=O)OCC(OC(=O)CCCCCCCCCCCCCCC)C1OC(=O)C2=C1OCCCCO2 (stereo not shown) [synthetic example 16, 5,6-O-dipalmitoyl-2,3-O-(1,4-butanediyl) ascorbic acid]
- Coloration After 2 weeks [4]: ○ (Total score of 10 panelists is 25 or more)
- Odor After 2 weeks [4]: ○ (Total score of 10 panelists is 25 or more)
- Coloration After 4 weeks [4]: ○ (Total score of 10 panelists is 25 or more)
- Odor After 4 weeks [4]: Δ
- Residual Rate After 2 weeks ([5]; pH7, stored at 50°C): ⊚ (95% or more)
- Residual Rate After 4 weeks ([5]; pH7, stored at 50°C): ⊚ (95% or more)
- Residual Rate After 2 weeks ([5]; pH9, stored at 50°C): ⊚ (95% or more)
- Residual Rate After 4 weeks ([5]; pH9, stored at 50°C): ⊚ (95% or more)
- Hyaluronic acid production-promoting effect [2]: ++ (120%<)

Compound: CC(C)CCCCCCCCCCCCCCC(=O)OCC(O)C1OC(=O)C2=C1OCCCO2 (stereo not shown) [synthetic example 28, 6-O-isostearoyl-2,3-O-(1,3-propanediyl) ascorbic acid]
- Coloration After 2 weeks [4]: ○ (Total score of 10 panelists is 25 or more)
- Odor After 2 weeks [4]: ○ (Total score of 10 panelists is 25 or more)
- Coloration After 4 weeks [4]: ○ (Total score of 10 panelists is 25 or more)
- Odor After 4 weeks [4]: Δ
- Residual Rate After 2 weeks ([5]; pH7, stored at 50°C): ⊚ (95% or more)
- Residual Rate After 4 weeks ([5]; pH7, stored at 50°C): ⊚ (95% or more)
- Residual Rate After 2 weeks ([5]; pH9, stored at 50°C): ⊚ (95% or more)
- Residual Rate After 4 weeks ([5]; pH9, stored at 50°C): ⊚ (95% or more)
- Hyaluronic acid production-promoting effect [2]: ++ (120%<)

Compound: Bisglyceryl ascorbic acid [reference compound]
- Residual Rate After 2 weeks ([1]; pH3, stored at 50°C): ⊚
- Residual Rate After 4 weeks ([1]; pH3, stored at 50°C): ⊚
- Residual Rate After 2 weeks ([1]; pH5, stored at 50°C): ⊚
- Residual Rate After 4 weeks ([1]; pH5, stored at 50°C): ⊚
- Residual Rate After 2 weeks ([1]; pH7, stored at 50°C): ×
- Residual Rate After 4 weeks ([1]; pH7, stored at 50°C): ×
- Residual Rate After 2 weeks ([1]; pH8, stored at 50°C): ×
- Residual Rate After 4 weeks ([1]; pH8, stored at 50°C): ×
- Residual Rate After 2 weeks ([1]; pH9, stored at 50°C): ×
- Residual Rate After 4 weeks ([1]; pH9, stored at 50°C): ×
- Coloration After 2 weeks [3]: Δ
- Odor After 2 weeks [3]: Δ
- Coloration After 4 weeks [3]: Δ
- Odor After 4 weeks [3]: Δ
